In patent US7273866B2, “2-aryl thiazole derivatives as KCNQ modulators” (Bristol-Myers Squibb Company, priority 2002, dated 2007):

Experiments:
mKCNQ2 channels = target: T1, mKCNQ2 channels (Mus musculus, UniProt Q9Z351); test: KCNQ patch-clamp (whole-cell recordings, HEK 293 stable cell line); type: cell-based; conditions: current of KCNQ2 channels, HEK 293 cells expressing mKCNQ2
T1 construct: expressed in transfected cells
Procedure: KCNQ Patch-clamp. Whole-cell patch-clamp recordings were made from an HEK 293 stable cell line expressing mKCNQ2 channels, maintained in culture for 1-2 days. Patch pipettes had initial resistances of 2.5-4 MΩ. Currents were recorded with an EPC-9 amplifier (HEKA, Lambrecht, Germany) controlled with software (Pulse, HEKA) run on a standard lab PC. Series resistance compensation was used during current recording, and set at 80%. The series resistance (R) and cell capacitance (C) were determined electronically by subtracting the capacitive currents at the onset and offset of a 5 mV voltage step. The cancellation of whole-cell capacitive transients was virtually complete in all cells. Analog current signals were low-pass filtered at 2.9 kHz using a four-pole Bessel filter −3 dB) and stored on a local network server computer at a sampling rate of […]. All recordings were performed at room temperature (20-22° C.). The pipette solution contained (mM) KCl, 150; CaCl2, 2.5; EGTA, 5; MgCl2, 1; HEPES, 10; pH to 7.3 with KOH, and Osmolality of 290-300 mOsm. The extracellular solution contained (mM): NaCl, 140; KCl, 2.5; CaCl2, 2.5; MgCl2, 1; glucose, 10; HEPES, 10; pH to 7.3 with NaOH, and Osmolality of 305-310 mOsm. […]

[1] = tested on: peripheral mononeuropathy nerve injury-induced tactile allodynia; test: Chung model of neuropathic pain (Chung surgery and von Frey test); type: in vivo, Sprague Dawley rats; conditions: 10 mg/kg, i.v.; von Frey thresholds over 90 min, rat
Procedure: Chung model of neuropathic pain (Chung surgery and von Frey test). To test agents for activity against peripheral mononeuropathy nerve injury-induced tactile allodynia, male Sprague Dawley rats (wt. 120-160 g) were surgically prepared with unilateral tight ligation of spinal nerves L5 and L6 following the method of Kim and Chung (Kim S. H., Chung J. M. (1992) Pain, September; 50(3):355-63). After 3-4 weeks recovery, paw withdrawal to light touch was assessed as described by Chaplan et al. (Chaplan S. R., et al., (1994) J. Neurosci Methods, July; 53(1):55-63). […] After acclimation, baseline von Frey thresholds were assessed for the injured hindpaw at −15 min. […] Following drug administration, von Frey thresholds were measured at 15, 30, 60 and 90 min. Data were analyzed by a 2-way repeated measures analysis of variance followed by Dunnett's test (p<0.05). […]
Reversal of neuropathic pain behavior may be expressed as a percentage (0-100%) of the maximum possible effect, over and above the vehicle effects. […]
For example, a compound which immediately reversed neuropathic pain behavior to normal levels, such that animals only responded to the highest von Frey filament (15 g), and maintained normal levels through out the post-drug testing period (90 min) would be calculated as Δ% MPE=100%.

In the case of `CC(NC(=O)c1sc(-c2ccccc2F)nc1C(F)(F)F)c1cccc(OC(F)(F)F)c1` (centres unmarked) [Example 21, 2-(2-fluorophenyl)-4-(trifluoromethyl)-N-[1-[3-(trifluoromethoxy)phenyl]ethyl]-5-thiazolecarboxamide], the EC50 (mKCNQ2 channels) is reported as 3 nM and the “AUC (Δ % MPE)” value [1] is reported as 28 (10 mg/kg, i.v.) Δ % MPE.
